Values quoted from earlier work as cited in publication PMC4021529 (British Journal of Cancer, 2014).
Read-outs that look alike come from different tables or passages of the source.

Tested on: advanced solid tumours
Settings: phase I trial, advanced solid malignancies, cited from earlier work

| SMILES | objective responses (ref Olmos et al, 2011) | objective responses (ref Garland et al, 2006) |
| --- | --- | --- |
| C[C@@H](Oc1cc(-n2cnc3ccc(CN4CCN(C)CC4)cc32)sc1C(N)=O)c1ccccc1C(F)(F)F [GSK461364] | no objective responses | – |
| COc1ccc(S(=O)(=O)N(C(C)=O)c2ccccc2/C=C/c2cc[n+]([O-])cc2)cc1 [HMN-214] | – | no objective responses |
